According to ChEMBL document CHEMBL3769347, “Discovery of high affinity inhibitors of Leishmania donovani N-myristoyltransferase” (Medchemcomm, 2015):

Experiments:
[1] = Cytotoxicity in BALB/c mouse BMDM cells after 72 hrs by Alamar Blue assay; format: cell-based; conditions: bone marrow-derived macrophages (BMDM cells), read-out: LD50
[2] = target: T1, Glycylpeptide N-tetradecanoyltransferase (Plasmodium falciparum (isolate 3D7), UniProt Q8ILW6); assay: Binding affinity to Plasmodium falciparum N-myristoyltransferase by fluorescence analysis
T1 sequence (Q8ILW6 whole entry): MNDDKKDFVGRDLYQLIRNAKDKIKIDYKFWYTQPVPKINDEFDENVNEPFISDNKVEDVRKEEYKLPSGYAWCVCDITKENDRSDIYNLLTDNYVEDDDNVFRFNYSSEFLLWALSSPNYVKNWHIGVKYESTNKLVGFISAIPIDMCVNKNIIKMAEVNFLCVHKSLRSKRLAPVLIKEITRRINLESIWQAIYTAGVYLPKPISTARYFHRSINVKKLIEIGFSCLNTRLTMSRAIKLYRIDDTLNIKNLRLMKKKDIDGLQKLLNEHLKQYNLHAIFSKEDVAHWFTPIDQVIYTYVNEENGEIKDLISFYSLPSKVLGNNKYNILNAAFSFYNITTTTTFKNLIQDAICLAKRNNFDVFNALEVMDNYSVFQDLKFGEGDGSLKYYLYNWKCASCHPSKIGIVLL

Row | Ki [2] [µM] | SMILES | CC50 at 72 h [1] [µM]
1 | – | Cc1nn(C)c(C)c1Cc1nnc(-c2cc(Cl)ccc2OC2CCNCC2)o1 | > 90
2 | – | COc1cccc(Cc2noc(-c3cc(Cl)ccc3OC3CCNCC3)n2)c1 | 18
3 | – | COc1cccc(Cc2noc(-c3cc(OC)ccc3OC3CCNCC3)n2)c1 | 27.9
4 | > 100 | COc1cccc(COC(=O)c2sccc2OC2CCNCC2)c1 | –
5 | – | COc1cccc(Cc2noc(-c3ccc(F)cc3OC3CCNCC3)n2)c1 | 29.5
